The text below walks through data of patent US10919859B2, “Benzylaminopyridylcyclopropanecarboxylic acids, pharmaceutical compositions and uses thereof” (Boehringer Ingelheim International GmbH, priority 2017, dated 2021).

pEC50: −log10 of the molar value. Some results are limits rather than exact numbers.

In data set [1] the target is human GPR40 receptor (Homo sapiens (Human), UniProt O14842). The data set can be described thus: IP1 accumulation measurements using the IPOne assay system. The data set is classed as cell-based. As to conditions: 1321N1 cells stably expressing human GPR40, 1 h at 37° C. As to the method: IP1 accumulation measurements using the IPOne assay system—1321N1 cells stably expressing human GPR40 receptor (Euroscreen, Belgium) are seeded 24 h before the assay in white 384-well plates in culture medium containing 10% FCS, 1% Na-Pyruvate and 400 μg/mL G418. IP1 is assayed according to the manufacturer's description (Cisbio Bioassays, France). In brief, the assay is started by substitution of the culture medium by stimulation buffer (Hepes 10 mM, CaCl2 1 mM, MgCl2 0.5 mM, KCl 4.2 mM, NaCl 146 mM, glucose 5.5 mM and LiCl 50 mM, pH 7.4). Cells are stimulated for 1 h at 37° C., 5% CO2 by addition of the compounds that are diluted in stimulation buffer containing LiCl. Assays are stopped by adding HTRF-conjugates (IP1-d2 and Anti-IP1 cryptate Tb) and lysis buffer, provided by the manufacturer. After an incubation time of 1 h at room temperature plates are measured using an EnVision™, Perkin Elmer. The obtained fluorescence ratios at 665/615 […] are then used to calculate the pEC50 values using Assay Explorer 3.3 Software (Accelrys, Inc.) by interpolation using an IP1 reference curve and subsequent sigmoidal curve fitting allowing for a variable hill slope.
Chain of human GPR40 receptor (O14842 whole entry): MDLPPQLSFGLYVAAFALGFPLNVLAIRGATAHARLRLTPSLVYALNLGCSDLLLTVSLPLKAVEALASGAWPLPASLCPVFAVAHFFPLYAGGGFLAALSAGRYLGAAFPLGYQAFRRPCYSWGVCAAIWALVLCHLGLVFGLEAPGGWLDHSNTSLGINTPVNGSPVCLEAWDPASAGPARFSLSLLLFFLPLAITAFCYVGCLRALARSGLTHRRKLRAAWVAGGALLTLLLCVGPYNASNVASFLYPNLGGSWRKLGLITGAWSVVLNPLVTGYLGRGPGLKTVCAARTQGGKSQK

The nature of data set [2]: Aqueous solubility (buffer vs acetonitrile/water, LC-UV). It is filed as physicochemical. Here is the method:
The aqueous solubility of the compounds of the invention is determined by comparing the amount dissolved in buffer to the amount in an acetonitrile/water (1/1) solution. Starting from a 10 mM DMSO stock solution aliquots are diluted with acetonitrile/water (1/1) or buffer, respectively. After 24 h of shaking, the solutions are filtrated and analyzed by LC-UV. The amount dissolved in buffer is compared to the amount in the acetonitrile solution.

Where [3] appears, read: pH 2.2 buffer, 24 h shaking, 2.5% DMSO, examples in this invention.

In general, pEC50 refers to −log10 of the EC50, conventionally taken in molar units. A lower pEC50 goes with a large EC50. What is called Solubility is the dissolved amount per volume that the medium holds. Read a low Solubility as little dissolved substance. `O=C(O)[C@H]1C[C@@H]1c1ccc(NCc2cc(-c3ccc(-c4cnco4)cc3)ccc2F)cn1` [Example 32] had a pEC50 in data set [1] of 6.76. Moreover, the “Solubility at pH value 2.2” value in data set [2] (setting [3]) turned out to be 56 μg/mL.
In data set [1], `O=C(O)[C@H]1C[C@@H]1c1ccc(NCc2cc(-c3c(F)cc(OC4CC4)cc3F)ccc2F)cn1` [Example 33] had a pEC50 of 6.53. Also, the “Solubility at pH value 2.2” value in data set [2] (pH 2.2) stood at 53 μg/mL.
For `Nc1cc(F)c(-c2ccc(F)c(CNc3ccc([C@H]4C[C@@H]4C(=O)O)nc3)c2)c(F)c1` [Example 34], in that order: 5.84 and 79 μg/mL.
Taken in the same sequence, the figures for `COc1cc(C)c(-c2ccc(F)c(CNc3ccc([C@H]4C[C@@H]4C(=O)O)nc3)c2)c(C)c1` [Example 35] were 7.31 and 63 μg/mL.
Taken in the same sequence, the figures for `Cc1ccc(Cl)c(-c2ccc(F)c(CNc3ccc([C@H]4C[C@@H]4C(=O)O)nc3)c2)c1Cl` [Example 36] were 7.46 and 43 μg/mL.
In the case of `O=C(O)[C@H]1C[C@@H]1c1ccc(NCc2cc(-c3ccccc3C(F)(F)F)ccc2F)cn1` [Example 37], the pEC50 in data set [1] was 7.42. Moreover, the “Solubility at pH value 2.2” value in data set [2] (pH 2.2) amounted to 68 μg/mL.
Taken in the same sequence, the figures for `N#Cc1cccc(C#N)c1-c1ccc(F)c(CNc2ccc([C@H]3C[C@@H]3C(=O)O)nc2)c1` [Example 38] were less than 5.00 and more than 83 μg/mL.
Taken in the same sequence, the figures for `O=C(O)[C@H]1C[C@@H]1c1ccc(NCc2cc(-c3c(F)cccc3F)ccc2F)cn1` [Example 39] were 6.36 and 46 μg/mL.
`COc1cc(F)c(-c2ccc(F)c(CNc3ccc([C@H]4C[C@@H]4C(=O)O)nc3)c2)c(F)c1` [Example 40] had a pEC50 in data set [1] of 6.01. For the same molecule, the “Solubility at pH value 2.2” value in data set [2] (pH 2.2) came out at 62 μg/mL.
Molecule `Cc1cccc(C)c1-c1ccc(F)c(CNc2ccc([C@H]3C[C@@H]3C(=O)O)nc2)c1` [Example 41] had a pEC50 in data set [1] of 7.39. Further, the “Solubility at pH value 2.2” value in data set [2] (pH 2.2) worked out at 59 μg/mL.
For `Cc1cc(C(=O)N(C)C)cc(C)c1-c1ccc(F)c(CNc2ccc([C@H]3C[C@@H]3C(=O)O)nc2)c1` [Example 42], in that order: 6.64 and 71 μg/mL.
`CNC(=O)c1cc(C)c(-c2ccc(F)c(CNc3ccc([C@H]4C[C@@H]4C(=O)O)nc3)c2)c(C)c1` [Example 43] had a negative-log EC50 (pEC50) in data set [1] of 6.45. Moreover, the “Solubility at pH value 2.2” value in data set [2] (pH 2.2) is 84 μg/mL.
As to `Cc1cc(OCC2CCOCC2)cc(C)c1-c1ccc(F)c(CNc2ccc([C@H]3C[C@@H]3C(=O)O)nc2)c1` [Example 44], the negative-log EC50 (pEC50) in data set [1] was 7.74. Further, in data set [2] (pH 2.2), the “Solubility at pH value 2.2” value turned out to be 66 μg/mL.
For `Cc1cc(C(=O)O)cc(C)c1-c1ccc(F)c(CNc2ccc([C@H]3C[C@@H]3C(=O)O)nc2)c1` [Example 45], the pEC50 in data set [1] was 5.44. Moreover, the “Solubility at pH value 2.2” value in data set [2] (pH 2.2) stood at 69 μg/mL.
With `Cc1cc(OCC2(O)CCS(=O)(=O)CC2)cc(C)c1-c1ccc(F)c(CNc2ccc([C@H]3C[C@@H]3C(=O)O)nc2)c1` [Example 46], the pEC50 in data set [1] was 6.77. For the same molecule, the “Solubility at pH value 2.2” value in data set [2] (pH 2.2) is listed as 102 μg/mL.
For `COc1cc(-c2cc(C)c(-c3ccc(F)c(CNc4ccc([C@H]5C[C@@H]5C(=O)O)nc4)c3)c(C)c2)ccn1` [Example 47], in that order: 8.30 and 57 μg/mL.
On to `Cc1cc(OCC2(O)CCSCC2)cc(C)c1-c1ccc(F)c(CNc2ccc([C@H]3C[C@@H]3C(=O)O)nc2)c1` [Example 48], for which the pEC50 in data set [1] was 7.25. For the same molecule, in data set [2] (pH 2.2), the “Solubility at pH value 2.2” value is 67 μg/mL.
For `Cc1cc(OCC2(O)CCOCC2)cc(C)c1-c1ccc(F)c(CNc2ccc([C@H]3C[C@@H]3C(=O)O)nc2)c1` [Example 49], in that order: 6.83 and 83 μg/mL.
Consider `CC(C)c1ccccc1-c1ccc(F)c(CNc2ccc([C@H]3C[C@@H]3C(=O)O)nc2)c1` [Example 50], for which the negative-log EC50 (pEC50) in data set [1] was 7.09. In addition, the “Solubility at pH value 2.2” value in data set [2] (setting [3]) is reported as 48 μg/mL.
For `Cc1cnc(-c2cc(C)c(-c3ccc(F)c(CNc4ccc([C@H]5C[C@@H]5C(=O)O)nc4)c3)c(C)c2)nc1` [Example 51], in that order: 8.22 and 58 μg/mL.
For `COc1cc(OC)c(F)c(-c2ccc(F)c(CNc3ccc([C@H]4C[C@@H]4C(=O)O)nc3)c2)c1F` [Example 52], the negative logarithm of the EC50 (pEC50) in data set [1] is 6.08. For the same molecule, in data set [2] (pH 2.2), the “Solubility at pH value 2.2” value was determined as 62 μg/mL.
For `CCc1cccc(CC)c1-c1ccc(F)c(CNc2ccc([C@H]3C[C@@H]3C(=O)O)nc2)c1` [Example 53], in data set [1], the negative logarithm of the EC50 (pEC50) was 7.24. The “Solubility at pH value 2.2” value in data set [2] (setting [3]) came out at 50 μg/mL.
Molecule `Cc1cc(-c2nnn(CC(C)(C)O)n2)cc(C)c1-c1ccc(F)c(CNc2ccc([C@H]3C[C@@H]3C(=O)O)nc2)c1` [Example 54] gave a negative logarithm of the EC50 (pEC50) in data set [1] of 8.00. Moreover, the “Solubility at pH value 2.2” value in data set [2] (pH 2.2) is recorded as 81 μg/mL.
For `Cc1cc(-c2ccnn2C)cc(C)c1-c1ccc(F)c(CNc2ccc([C@H]3C[C@@H]3C(=O)O)nc2)c1` [Example 55], in that order: 7.92 and 53 μg/mL.
The molecule `Cc1cc(-c2ccn(C)c(=O)n2)cc(C)c1-c1ccc(F)c(CNc2ccc([C@H]3C[C@@H]3C(=O)O)nc2)c1` [Example 56] had a pEC50 in data set [1] of 7.49. In addition, the “Solubility at pH value 2.2” value in data set [2] (setting [3]) stood at 86 μg/mL.
In the case of `Cc1cc(C#N)cc(C)c1-c1ccc(F)c(CNc2ccc([C@H]3C[C@@H]3C(=O)O)nc2)c1` [Example 57], the negative logarithm of the EC50 (pEC50) in data set [1] was 7.04. The “Solubility at pH value 2.2” value in data set [2] (pH 2.2) is 59 μg/mL.
